One data set has as its target T1, CvTAm (Chromobacterium violaceum, UniProt Q7NWG4).
T1 construct: gene CV_2025; recombinant in E. coli BL21(DE3)
Nature of the data set: HPLC conversion. The data set is classed as biochemical. Particulars: amine donor; pyruvate acceptor, PLP, HEPES pH 7.5, 37 °C, 6 h.

The subject of another data set is NCCc1ccc(O)cc1. Nature of the data set: cells, lysate or membranes. The data set is classed as cell-based, Candidatus Nitrosopumilus salarius. As to conditions: apparent constant; N201S variant; copper enzyme; assay details in supplement.
A further data set has as its target T2, EfTyrDC (Enterococcus faecalis, UniProt Q838D6).
T2 construct: gene tdc; recombinant in E. coli BL21(DE3)
Nature of the data set: HPLC conversion. The data set is classed as biochemical. As to conditions: PLP, HEPES pH 7.5, 37 °C, 6 h; coupled with CvTAm.

T2 sequence (Q838D6 whole entry): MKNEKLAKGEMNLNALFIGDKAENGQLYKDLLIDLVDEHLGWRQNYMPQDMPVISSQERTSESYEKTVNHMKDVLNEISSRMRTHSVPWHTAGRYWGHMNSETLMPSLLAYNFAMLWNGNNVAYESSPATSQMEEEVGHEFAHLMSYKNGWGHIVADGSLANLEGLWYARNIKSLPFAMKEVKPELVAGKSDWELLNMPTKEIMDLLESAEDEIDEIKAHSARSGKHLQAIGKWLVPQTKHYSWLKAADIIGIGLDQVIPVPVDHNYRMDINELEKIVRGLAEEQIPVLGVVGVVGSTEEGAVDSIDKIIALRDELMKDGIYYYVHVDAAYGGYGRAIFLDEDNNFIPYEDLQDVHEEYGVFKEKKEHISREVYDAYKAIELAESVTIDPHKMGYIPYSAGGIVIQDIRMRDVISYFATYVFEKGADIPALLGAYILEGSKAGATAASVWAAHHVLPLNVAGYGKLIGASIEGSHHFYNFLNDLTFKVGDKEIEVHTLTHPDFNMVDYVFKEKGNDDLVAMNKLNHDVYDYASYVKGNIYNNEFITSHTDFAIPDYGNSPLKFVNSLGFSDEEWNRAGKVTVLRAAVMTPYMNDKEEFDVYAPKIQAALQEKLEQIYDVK
T1 sequence (Q7NWG4 entry or part of it): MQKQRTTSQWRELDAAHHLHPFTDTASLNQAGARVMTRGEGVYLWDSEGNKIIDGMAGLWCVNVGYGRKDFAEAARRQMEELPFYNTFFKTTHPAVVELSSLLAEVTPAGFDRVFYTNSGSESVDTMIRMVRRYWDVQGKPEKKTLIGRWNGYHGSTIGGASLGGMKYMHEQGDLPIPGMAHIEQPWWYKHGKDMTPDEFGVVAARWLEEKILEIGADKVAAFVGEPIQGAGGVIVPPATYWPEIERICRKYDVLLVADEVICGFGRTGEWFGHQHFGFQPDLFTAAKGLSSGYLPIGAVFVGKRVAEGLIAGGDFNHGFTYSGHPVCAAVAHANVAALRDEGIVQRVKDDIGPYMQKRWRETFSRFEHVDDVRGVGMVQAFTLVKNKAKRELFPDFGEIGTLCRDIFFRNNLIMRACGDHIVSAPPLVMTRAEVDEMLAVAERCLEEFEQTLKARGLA

As for `NCCCc1ccccc1` [compound 14, 3-phenyl-1-propylamine], at CvTAm, the HPLC conversion result was “All of the selected substrates were readily accepted by EfTyrDC and CvTAm”.
As to “CnTYR (Candidatus Nitrosopumilus salarius BD31; N201S)”, in the data set with NCCc1ccc(O)cc1, the Michaelis constant (Km) was 1780 µM and the kcat was found to be 197.5 s⁻¹.
On to `N[C@@H](Cc1ccc(O)c(Cl)c1)C(=O)O` [compound 12, 3-Cl-L-tyrosine], for which the HPLC conversion result at EfTyrDC was “All of the selected substrates were readily accepted by EfTyrDC and CvTAm”.
Still for that read-out and setting: with `N[C@@H](Cc1cccc(O)c1)C(=O)O` [compound 9, meta-L-tyrosine] the entry was “All of the selected substrates were readily accepted by EfTyrDC and CvTAm”.

The values above are taken from publication PMC9481557, “Enzymatic synthesis of benzylisoquinoline alkaloids using a parallel cascade strategy and tyrosinase variants” (Nature Communications, 2022).
